Laboratory results: ChEMBL document CHEMBL1147729, “(+)-(2R,5S)-4-[4-cyano-3-(trifluoromethyl)phenyl]-2,5-dimethyl-N-[6-(trifluoromethyl)pyridin-3-yl]piperazine-1-carboxamide (YM580) as an orally potent and peripherally selective nonsteroidal androgen receptor antagonist” (J Med Chem, 2006)
pIC50, pKi: −log10 of the molar value. Active and inactive are the calls of the source. The calls are words filed in the database; no cut-off is given here.

Legend:
Rattus norvegicus [1] = assay: Effect on ventral prostate weight with reference to control in Wistar rat at 10 mg/kg/day, po; type: functional, Prostate gland; details: for inhibition in vivo at 10 mg/kg/day: Rattus norvegicus, Wistar; for inhibition in vivo at 10 mg/kg/day / inhibition: Prostate gland
Androgen receptor = molecular target: T1, Androgen receptor (Homo sapiens, UniProt P10275)
T1 sequence (P10275 whole entry): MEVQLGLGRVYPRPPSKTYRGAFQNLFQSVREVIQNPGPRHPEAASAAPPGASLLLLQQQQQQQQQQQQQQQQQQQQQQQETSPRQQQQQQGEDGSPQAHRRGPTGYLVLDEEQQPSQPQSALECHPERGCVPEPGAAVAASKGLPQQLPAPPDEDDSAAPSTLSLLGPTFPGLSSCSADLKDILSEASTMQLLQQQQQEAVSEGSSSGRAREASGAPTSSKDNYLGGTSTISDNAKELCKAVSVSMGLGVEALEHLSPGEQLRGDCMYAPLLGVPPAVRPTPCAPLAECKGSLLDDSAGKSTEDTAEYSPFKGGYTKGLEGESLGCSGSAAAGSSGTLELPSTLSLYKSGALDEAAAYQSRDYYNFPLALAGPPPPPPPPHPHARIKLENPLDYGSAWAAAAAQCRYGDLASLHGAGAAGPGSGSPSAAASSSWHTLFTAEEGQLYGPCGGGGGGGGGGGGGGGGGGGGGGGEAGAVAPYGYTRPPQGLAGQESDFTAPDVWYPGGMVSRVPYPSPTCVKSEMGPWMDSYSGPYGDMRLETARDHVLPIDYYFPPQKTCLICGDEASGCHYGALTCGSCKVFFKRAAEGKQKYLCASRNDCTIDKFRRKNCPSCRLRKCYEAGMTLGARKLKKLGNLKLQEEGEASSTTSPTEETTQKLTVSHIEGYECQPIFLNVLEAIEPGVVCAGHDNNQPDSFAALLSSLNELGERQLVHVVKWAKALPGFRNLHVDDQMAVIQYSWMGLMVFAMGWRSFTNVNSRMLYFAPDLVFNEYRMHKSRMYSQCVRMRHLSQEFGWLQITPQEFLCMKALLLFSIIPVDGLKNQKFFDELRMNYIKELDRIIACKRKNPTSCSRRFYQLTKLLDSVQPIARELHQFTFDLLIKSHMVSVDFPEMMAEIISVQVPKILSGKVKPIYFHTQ
Description: Inhibition of AR mediated transcriptional activation using reporter assay

Rattus norvegicus [2] = assay: Effect on ventral prostate weight with reference to control in Wistar rat at 10 mg/kg/day, po; details: Prostate gland
Progesterone receptor = molecular target: T2, Progesterone receptor (Rattus norvegicus, UniProt Q63449); assay: Inhibition of rat PR
T2 sequence (Q63449 whole entry): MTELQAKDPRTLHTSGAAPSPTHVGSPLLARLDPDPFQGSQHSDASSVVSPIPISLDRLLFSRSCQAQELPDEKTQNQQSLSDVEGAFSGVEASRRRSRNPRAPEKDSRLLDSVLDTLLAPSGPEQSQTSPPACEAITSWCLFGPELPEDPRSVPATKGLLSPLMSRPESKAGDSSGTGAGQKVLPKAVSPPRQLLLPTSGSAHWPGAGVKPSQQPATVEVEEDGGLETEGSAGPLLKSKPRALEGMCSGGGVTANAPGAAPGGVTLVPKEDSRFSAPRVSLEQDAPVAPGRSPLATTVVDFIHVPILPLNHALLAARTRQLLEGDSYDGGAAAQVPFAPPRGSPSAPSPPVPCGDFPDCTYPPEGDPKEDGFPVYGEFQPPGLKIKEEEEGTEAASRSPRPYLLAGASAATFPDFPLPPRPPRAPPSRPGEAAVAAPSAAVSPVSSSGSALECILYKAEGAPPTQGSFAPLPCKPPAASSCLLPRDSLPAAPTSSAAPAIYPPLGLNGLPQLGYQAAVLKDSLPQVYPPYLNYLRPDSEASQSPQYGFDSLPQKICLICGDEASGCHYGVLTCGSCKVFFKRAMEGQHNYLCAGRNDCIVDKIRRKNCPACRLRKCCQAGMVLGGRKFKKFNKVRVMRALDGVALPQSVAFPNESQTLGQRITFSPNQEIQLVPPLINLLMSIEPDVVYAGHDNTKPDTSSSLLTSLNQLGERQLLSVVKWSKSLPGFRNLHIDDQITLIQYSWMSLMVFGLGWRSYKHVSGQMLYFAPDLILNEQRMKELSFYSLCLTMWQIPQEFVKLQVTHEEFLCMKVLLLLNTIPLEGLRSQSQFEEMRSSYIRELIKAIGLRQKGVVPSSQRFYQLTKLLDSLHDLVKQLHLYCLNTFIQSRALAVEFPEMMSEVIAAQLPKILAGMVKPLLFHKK

Glucocorticoid receptor = molecular target: T3, Glucocorticoid receptor (Homo sapiens, UniProt P04150); assay: Inhibition of human GR
T3 sequence (P04150 whole entry): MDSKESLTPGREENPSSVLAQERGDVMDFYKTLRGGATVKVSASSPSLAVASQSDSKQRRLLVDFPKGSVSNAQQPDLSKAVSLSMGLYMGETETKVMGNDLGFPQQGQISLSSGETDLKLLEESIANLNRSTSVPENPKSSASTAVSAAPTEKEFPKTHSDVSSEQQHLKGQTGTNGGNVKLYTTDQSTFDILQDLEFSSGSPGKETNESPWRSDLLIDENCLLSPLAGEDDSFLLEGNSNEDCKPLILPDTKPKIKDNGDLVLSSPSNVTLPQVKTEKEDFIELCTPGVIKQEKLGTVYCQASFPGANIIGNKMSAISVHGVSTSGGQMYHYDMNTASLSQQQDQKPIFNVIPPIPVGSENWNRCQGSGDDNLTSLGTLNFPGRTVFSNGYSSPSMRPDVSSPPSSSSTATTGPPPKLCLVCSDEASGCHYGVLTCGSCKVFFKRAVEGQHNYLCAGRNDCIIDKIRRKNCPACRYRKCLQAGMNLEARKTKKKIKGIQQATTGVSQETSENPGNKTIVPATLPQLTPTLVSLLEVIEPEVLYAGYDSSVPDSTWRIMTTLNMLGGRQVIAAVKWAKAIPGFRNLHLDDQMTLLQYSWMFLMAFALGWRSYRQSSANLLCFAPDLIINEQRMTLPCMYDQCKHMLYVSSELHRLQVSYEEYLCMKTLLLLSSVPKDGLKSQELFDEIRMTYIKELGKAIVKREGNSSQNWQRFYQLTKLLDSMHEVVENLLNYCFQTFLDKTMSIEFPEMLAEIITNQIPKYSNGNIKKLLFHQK

[3] = Cmax in rat plasma at 3 mg/kg, po; type: ADME, organism-based; design: dose 3 mg/kg, route oral
[4] = AUC (0-72)hrs in rat plasma at 3 mg/kg, po; type: ADME, organism-based; design: time < 72 hr, dose 3 mg/kg, route oral
[5] = Half life in rat plasma at 3 mg/kg, po; type: ADME, organism-based; design: dose 3 mg/kg, route oral
[6] = Oral clearance in rat at 3 mg/kg, po; type: ADME, organism-based; design: dose 3 mg/kg, route oral; details: in vivo
[7] = Cmax in rat ventral prostate at 3 mg/kg, po; type: ADME, organism-based, Prostate gland; design: dose 3 mg/kg, route oral
[8] = AUC (0-72)hrs in rat ventral prostate at 3 mg/kg, po; type: ADME, organism-based, Prostate gland; design: time < 72 hr, dose 3 mg/kg, route oral
[9] = Half life in rat ventral prostate at 3 mg/kg, po; type: ADME, organism-based, Prostate gland; design: dose 3 mg/kg, route oral
[10] = Oral clearance in rat ventral prostate at 3 mg/kg, po; type: ADME, organism-based, Prostate gland; design: dose 3 mg/kg, route oral
[11] = Cmax in rat hypothalamus at 3 mg/kg, po; type: ADME, organism-based; design: dose 3 mg/kg, route oral
[12] = AUC (0-72)hrs in rat hypothalamus at 3 mg/kg, po; type: ADME, organism-based; design: time < 72 hr, dose 3 mg/kg, route oral
[13] = Half life in rat hypothalamus at 3 mg/kg, po; type: ADME, organism-based; design: dose 3 mg/kg, route oral
[14] = Oral clearance in rat hypothalamus at 3 mg/kg, po; type: ADME, organism-based; design: dose 3 mg/kg, route oral
Rattus norvegicus [15] = assay: Effect on ventral prostate weight with reference to control in Wistar rat at 100 mg/kg/day; type: ADME, organism-based, Prostate gland; details: in vivo

| Compound | inhibition in vivo at 10 mg/kg/day (Rattus norvegicus [1]) | pIC50 (Androgen receptor) | further results |
| --- | --- | --- | --- |
| Cc1ccncc1NC(=O)N1C[C@H](C)N(c2ccc(C#N)c(C(F)(F)F)c2)C[C@H]1C (racemic) | 11% | 6.48 | – |
| C[C@@H]1CN(c2ccc(C#N)c(C(F)(F)F)c2)[C@@H](C)CN1C(=O)Nc1ncccn1 (racemic) | – | < 5.00 | – |
| Cc1ncccc1NC(=O)N1C[C@H](C)N(c2ccc(C#N)c(C(F)(F)F)c2)C[C@H]1C (racemic) | – | 6.17 | – |
| C[C@@H]1CN(c2ccc(C#N)c(C(F)(F)F)c2)[C@@H](C)CN1C(=O)Nc1ccc(N)nc1 (racemic) | 39% | 6.43 | – |
| Cc1ccc(NC(=O)N2C[C@H](C)N(c3ccc(C#N)c(C(F)(F)F)c3)C[C@H]2C)cn1 (racemic) | 58% | 6.89 | – |
| C[C@@H]1CN(c2ccc(C#N)c(C(F)(F)F)c2)[C@@H](C)CN1C(=O)Nc1ccc(Cl)nc1 (racemic) | 52% | 6.14 | – |
| CC(=O)c1ccc(NC(=O)N2C[C@H](C)N(c3ccc(C#N)c(C(F)(F)F)c3)C[C@H]2C)cn1 (racemic) | 43% | 6.30 | – |
| C[C@@H]1CN(c2ccc(C#N)c(C(F)(F)F)c2)[C@@H](C)CN1C(=O)Nc1cncnc1 (racemic) | – | 6.00 | – |
| C[C@@H]1CN(c2ccc(C#N)c(C(F)(F)F)c2)[C@@H](C)CN1C(=O)Nc1ccccn1 (racemic) | – | 5.11 | – |
| C[C@@H]1CN(c2ccc(C#N)c(C(F)(F)F)c2)[C@@H](C)CN1C(=O)Nc1ccc[n+]([O-])c1 (racemic) | – | < 5.00 | – |
| COc1ccncc1NC(=O)N1C[C@H](C)N(c2ccc(C#N)c(C(F)(F)F)c2)C[C@H]1C (racemic) | – | – | inhibition (Rattus norvegicus [1]): inactive |
| COc1ccc(NC(=O)N2C[C@H](C)N(c3ccc(C#N)c(C(F)(F)F)c3)C[C@H]2C)cn1 (racemic) | 52% | 6.77 | – |
| C[C@@H]1CN(c2ccc(C#N)c(C(F)(F)F)c2)[C@@H](C)CN1C(=O)Nc1ccncc1 (racemic) | 39% | – | – |
| Cc1cncc(NC(=O)N2C[C@H](C)N(c3ccc(C#N)c(C(F)(F)F)c3)C[C@H]2C)c1 (racemic) | 11% | 6.60 | – |
| C[C@@H]1CN(c2ccc(C#N)c(C(F)(F)F)c2)[C@@H](C)CN1C(=O)Nc1ccc(F)cc1F | – | 6.70 | inhibition (Rattus norvegicus [2]): inactive |
| COc1cncc(NC(=O)N2C[C@H](C)N(c3ccc(C#N)c(C(F)(F)F)c3)C[C@H]2C)c1 (racemic) | 18% | 6.36 | – |
| CC1CN(c2ccc(C#N)c(C(F)(F)F)c2)C(C)CN1C(=O)Nc1ccc(C(F)(F)F)nc1 (racemic) | 64% | – | – |
| C[C@@H]1CN(c2ccc(C#N)c(C(F)(F)F)c2)[C@@H](C)CN1C(=O)Nc1cccnc1 (racemic) | 42% | 6.92 | – |
| C[C@@H]1CN(c2ccc(C#N)c(C(F)(F)F)c2)[C@@H](C)CN1C(=O)Nc1ccc(O)nc1 (racemic) | – | < 5.00 | – |
| COc1ncccc1NC(=O)N1C[C@H](C)N(c2ccc(C#N)c(C(F)(F)F)c2)C[C@H]1C (racemic) | – | 6.72 | inhibition (Rattus norvegicus [2]): inactive |
| C[C@@H]1CN(c2ccc(C#N)c(C(F)(F)F)c2)[C@@H](C)CN1C(=O)Nc1ccncn1 (racemic) | – | 5.34 | – |
| COC(=O)c1ccc(NC(=O)N2C[C@H](C)N(c3ccc(C#N)c(C(F)(F)F)c3)C[C@H]2C)cn1 (racemic) | – | 6.33 | inhibition (Rattus norvegicus [1]): inactive |
| C[C@@H]1CN(C(=O)Nc2ccc(C(F)(F)F)nc2)[C@@H](C)CN1c1ccc(C#N)c(C(F)(F)F)c1 | – | – | inhibition (Rattus norvegicus [2]): inactive |
| C[C@@H]1CN(c2ccc(C#N)c(C(F)(F)F)c2)[C@@H](C)CN1C(=O)Nc1ccc(C#N)nc1 (racemic) | 53% | 6.70 | – |
| CSc1ccc(NC(=O)N2C[C@H](C)N(c3ccc(C#N)c(C(F)(F)F)c3)C[C@H]2C)cn1 (racemic) | 36% | 6.66 | – |
| CC(O)(CS(=O)(=O)c1ccc(F)cc1)C(=O)Nc1ccc(C#N)c(C(F)(F)F)c1 (stereo not given) [BICALUTAMIDE] | – | – | Inhibition (Rattus norvegicus [1]): 45%; pKi (Progesterone receptor): 5.14; pKi (Glucocorticoid receptor): < 4.00; Cmax [3]: 1.41 µg/mL; AUC at 72 h [4]: 46.9 µg·h/mL; half-life [5]: 22.3 h; CL/F [6]: 0.0567 L/h/kg; Cmax [7]: 1.99 µg/mL; AUC at 72 h [8]: 52.5 µg·h/mL; half-life [9]: 23.4 h; CL/F [10]: 0.0504 L/h/kg; Cmax [11]: 0.321 µg/mL; AUC at 72 h [12]: 10.6 µg·h/mL; half-life [13]: 27.8 h; CL/F [14]: 0.225 L/h/kg; Activity (Rattus norvegicus [15]): 55% |
